# Laboratory results: patent US11384075B2, “Quinolinone compounds” (Janssen Pharmaceutica NV, priority 2017, dated 2022)
# How the values were obtained:
# [1] = test system: NIH/3T3 cells transfected with the same control vector; test: NIH/3T3 mock cell proliferation assay (counter assay, general toxicity); assay type: cell-based; details: Mus musculus, NIH3T3, 72 h, 72-hr incubation, CellTiter Glo, starting with 30 μM; counter assay for general toxicity; read-out: NIH/3T3 MOCK CTG (IC50)
# Protocol: NIH/3T3 Mock Cell Proliferation Assay
# (§1) In day 1, 90 μL of cell suspension (NIH/3T3 cells transfected with the same control vector as in the above two proliferation assays) (total 30,000 cells per well in growth medium (DMEM containing 1% Glutamax, 10% FBS and 1% Pen/Strep)) was seeded in a 96-well plate and then incubated overnight at 37° C. and 5% CO2. In day 2, 10 μL of growth medium containing 10-fold stock solution of testing compound was added into cell cultures (9 dose points with 3× serial dilution, starting with 30 μM, 0.3% DMSO final). After 72-hr incubation at 37° C. and 5% CO2, in day 5 a volume of 50 μL CellTiter Glo (CTG) reagent was added into cell-containing 96-well plate and the plate was incubated at room temperature for 10 minutes before RLUs (relative light unit) were measured on a microplate reader with luminescence detection module. The RLU value was normalized to survival % and concentration-response curve was plotted using Prism to calculate IC50 (M), pIC50 (−log IC50) and HillSlope value.
# [2] = target: T1, human FGFR3 wild type enzyme (cytoplasmic domain) (Homo sapiens, UniProt P22607); test: FGFR3 wild type mobility shift assay (enzymatic assay); assay type: biochemical; details: 75 μM ATP, 50 minutes at 30° C., Caliper EZ reader II
# T1 construct: human FGFR3 wild type enzyme (cytoplasmic domain, from Carna Biosciences); purchased Carna Biosciences
# Protocol: FGFR3 Wild Type Mobility Shift Assay (Enzymatic Assay)
# (§2) In a final reaction volume of 25 μL, 0.04 ng/μL human FGFR3 wild type enzyme (cytoplasmic domain, from Carna Biosciences) was incubated with 75 μM ATP, 1 μM FL-peptide 30 substrate and 250 nL of testing compound (1% DMSO final) in assay buffer (100 mM HEPES pH 7.4, 10 mM MgCl2, 0.003% Brij35, 1 mM DTT). After incubation for 50 minutes at 30° C. the reaction was stopped with 10 μL of 0.5M EDTA pH 8.0, and then 25 μL of reaction mixture was transferred to reading plate and measured on Caliper EZ reader II. The substrate-product conversion rate was used as raw data for normalization and concentration-response curve (10 dose points with 4× serial dilution, starting with 10 μM) was plotted using Prism to calculate IC50 (M), pIC50 (−log IC50) and HillSlope value.
# [3] = target: T2, NIH/3T3 cells overexpressing FGFR3 V555M-TACC3 fusion protein (Homo sapiens, UniProt P22607, V555M, cells depend on it); test: NIH/3T3 FGFR3 V555M-TACC3 cell proliferation assay; assay type: cell-based; details: 72-hr incubation, CellTiter Glo, starting with 10 μM; read-out: NIH/3T3 FGFR3 V555M-TACC3 CTG (IC50)
# T2 construct: NIH/3T3 FGFR3 V555M-TACC3 CTG (IC50); other: 72-hr incubation, CellTiter Glo, starting with 10 μM; fused on or other part: Q9Y6A5 (Transforming acidic coiled-coil-containing protein 3)
# Protocol: NIH/3T3 FGFR3 V555M-TACC3 Cell Proliferation Assay
# as §1, with “cells overexpressing FGFR3 V555M-TACC3 fusion protein)” for “cells transfected with the same control vector as in the above two proliferation assays)”, “with 4×” for “with 3×”, “with 10” for “with 30”, “μM, 0.1%” for “μM, 0.3%”
# [4] = target: T3, human FGFR3 V555M enzyme (cytoplasmic domain carrying V555M mutation) (Homo sapiens, UniProt P22607, V555M); test: FGFR3 V555M mobility shift assay (enzymatic assay); assay type: biochemical; details: 30 μM ATP, 45 minutes at 30° C., Caliper EZ reader II
# T3 construct: human FGFR3 V555M enzyme (cytoplasmic domain carrying V555M mutation, from Carna Biosciences); purchased Carna Biosciences
# Protocol: FGFR3 V555M Mobility Shift Assay (Enzymatic Assay)
# as §2, with “FGFR3 V555M” for “FGFR3 wild type”, “(cytoplasmic domain carrying V555M mutation,” for “(cytoplasmic domain,”, “with 30” for “with 75”, “for 45” for “for 50”
# [5] = target: T4, NIH/3T3 cells overexpressing FGFR3 WT-TACC3 fusion protein (Homo sapiens, UniProt P22607); test: NIH/3T3 FGFR3 WT-TACC3 cell proliferation assay; assay type: cell-based; details: 72-hr incubation, CellTiter Glo, starting with 10 μM; read-out: NIH/3T3 FGFR3 WT-TACC3 CTG (IC50)
# T4 construct: NIH/3T3 FGFR3 WT-TACC3 CTG (IC50); other: 72-hr incubation, CellTiter Glo, starting with 10 μM; fused on or other part: Q9Y6A5 (Transforming acidic coiled-coil-containing protein 3)
# Protocol: NIH/3T3 FGFR3 WT-TACC3 Cell Proliferation Assay
# as §1, with “cells overexpressing FGFR3 WT-TACC3 fusion protein)” for “cells transfected with the same control vector as in the above two proliferation assays)”, “with 4×” for “with 3×”, “with 10” for “with 30”, “μM, 0.1%” for “μM, 0.3%”
# T2 sequence (P22607 whole entry V555M, the tested form may be a part): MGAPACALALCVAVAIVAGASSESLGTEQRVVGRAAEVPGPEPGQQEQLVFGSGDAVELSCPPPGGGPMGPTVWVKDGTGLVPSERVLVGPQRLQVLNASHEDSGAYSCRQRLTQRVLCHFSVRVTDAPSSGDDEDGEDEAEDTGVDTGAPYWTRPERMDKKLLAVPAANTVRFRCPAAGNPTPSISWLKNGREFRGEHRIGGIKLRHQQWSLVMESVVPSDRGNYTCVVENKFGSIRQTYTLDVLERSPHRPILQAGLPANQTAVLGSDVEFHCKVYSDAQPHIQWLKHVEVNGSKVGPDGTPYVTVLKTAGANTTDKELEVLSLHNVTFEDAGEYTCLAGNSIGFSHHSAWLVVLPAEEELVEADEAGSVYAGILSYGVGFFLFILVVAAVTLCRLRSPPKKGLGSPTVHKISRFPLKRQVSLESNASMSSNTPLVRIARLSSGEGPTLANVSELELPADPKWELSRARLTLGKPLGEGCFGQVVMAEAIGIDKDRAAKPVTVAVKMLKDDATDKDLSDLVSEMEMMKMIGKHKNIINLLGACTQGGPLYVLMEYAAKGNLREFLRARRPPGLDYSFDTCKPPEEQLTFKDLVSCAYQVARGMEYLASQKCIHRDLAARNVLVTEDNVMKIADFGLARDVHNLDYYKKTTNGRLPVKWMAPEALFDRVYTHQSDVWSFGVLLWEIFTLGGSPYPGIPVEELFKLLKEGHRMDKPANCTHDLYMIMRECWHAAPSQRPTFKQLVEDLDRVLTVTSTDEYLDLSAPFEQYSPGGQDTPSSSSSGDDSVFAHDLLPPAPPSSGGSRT
# T3 sequence (P22607 397-806 V555M limits assumed): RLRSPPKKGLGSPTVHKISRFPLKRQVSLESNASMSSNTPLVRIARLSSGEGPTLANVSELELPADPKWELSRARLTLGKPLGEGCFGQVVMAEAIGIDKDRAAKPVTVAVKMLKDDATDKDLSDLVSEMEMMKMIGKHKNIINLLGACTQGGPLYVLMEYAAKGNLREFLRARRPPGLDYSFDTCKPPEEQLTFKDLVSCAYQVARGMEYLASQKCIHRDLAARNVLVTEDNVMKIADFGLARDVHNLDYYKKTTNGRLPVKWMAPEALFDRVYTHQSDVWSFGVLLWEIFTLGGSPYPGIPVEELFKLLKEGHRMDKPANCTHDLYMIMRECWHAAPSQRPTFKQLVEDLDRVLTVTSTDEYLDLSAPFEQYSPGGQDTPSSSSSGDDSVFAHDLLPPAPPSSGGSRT
# T1 sequence (P22607 397-806 limits assumed): as the sequence (P22607 397-806 V555M limits assumed) above, with M159V counted along it
# T4 sequence (P22607 whole entry, change not shown, the tested form may be a part): as the sequence (P22607 whole entry V555M, the tested form may be a part) above, with M555V counted along it
compound,measurement,setting,value
"COC(=O)C1CN(c2ccc3nc(-c4c(N[C@@H](C)c5ccccn5)c5ccccc5[nH]c4=O)[nH]c3c2)CCO1 (mixture of isomers) [Compound 59, (Rac)-methyl 4-(2-(2-oxo-4-(((S)-1-(pyridin-2-yl)ethyl)amino)-1,2-dihydroquinolin-3-yl)-1H-benzo[d]imidazol-6-yl)morpholine-2-carboxylate]",IC50,[1],7.29 µM
same,IC50,[2],0.788 nM
same,GI50,[3],61.7 nM
same,IC50,[4],0.359 nM
same,GI50,[5],31.9 nM
"C[C@H](Nc1c(-c2nc3ccc(N4CCOC(C(=O)O)C4)cc3[nH]2)c(=O)[nH]c2ccccc12)c1ccccn1 (mixture of isomers) [Compound 60, (Rac)-4-(2-(2-oxo-4-(((S)-1-(pyridin-2-yl)ethyl)amino)-1,2-dihydroquinolin-3-yl)-1H-benzo[d]imidazol-6-yl)morpholine-2-carboxylic acid]",IC50,[1],> 30 µM
same,IC50,[2],1.18 nM
same,GI50,[3],1620 nM
same,IC50,[4],0.603 nM
same,GI50,[5],1280 nM
"CC(Nc1c(-c2nc3ccc(N4CCN(C)CC4)cc3[nH]2)c(=O)[nH]c2ccccc12)c1cocn1 (single isomer, unassigned) [Compound 11a, (S*)-3-(6-(4-methylpiperazin-1-yl)-1H-benzo[d]imidazol-2-yl)-4-((1-(oxazol-4-yl)-ethyl)amino)quinolin-2(1H)-one]",IC50,[2],32.6 nM
same,IC50,[4],12 nM
"CC(Nc1c(-c2nc3ccc(N4CCN(C)CC4)c(F)c3[nH]2)c(=O)[nH]c2ccccc12)c1ccccn1 (single isomer, unassigned) [Compound 13b, (S*)-3-(7-fluoro-6-(4-methylpiperazin-1-yl)-1H-benzo[d]imidazol-2-yl)-4-((1-(pyridin-2-yl)ethyl)amino)quinolin-2(1H)-one]",IC50,[1],1.74 µM
same,IC50,[2],1.05 nM
same,GI50,[3],4.34 nM
same,IC50,[4],0.449 nM
same,GI50,[5],3.46 nM
"CC(Nc1c(-c2nc3ccc(N4C[C@@H](C)O[C@@H](C)C4)cc3[nH]2)c(=O)[nH]c2ccccc12)c1ncccn1 (single isomer, unassigned) [Compound 22a, 3-(6-((2S,6R)-2,6-dimethylmorpholino)-1H-benzo[d]imidazol-2-yl)-4-(((S*)-1-(pyrimidin-2-yl)ethyl)amino)quinolin-2(1H)-one]",IC50,[1],6.39 µM
same,IC50,[2],0.445 nM
same,GI50,[3],6.48 nM
same,IC50,[4],0.421 nM
same,GI50,[5],13.3 nM
"CC(Nc1c(-c2nc3ccc(N4CCOCC4)c(F)c3[nH]2)c(=O)[nH]c2ccccc12)c1ncccn1 (single isomer, unassigned) [Compound 23a, (S*)-3-(7-fluoro-6-morpholino-1H-benzo[d]imidazol-2-yl)-4-((1-(pyrimidin-2-yl)-ethyl)amino)quinolin-2(1H)-one]",IC50,[1],15.3 µM
same,IC50,[2],0.591 nM
same,GI50,[3],13.4 nM
same,IC50,[4],0.245 nM
same,GI50,[5],8.34 nM
"CC(Nc1c(-c2nc3ccc(N4C[C@@H](C)O[C@H](C)C4)cc3[nH]2)c(=O)[nH]c2ccccc12)c1ncccn1 (single isomer, unassigned) [Compound 37b, 3-(6-((2R,6R)-2,6-dimethylmorpholino)-1H-benzo[d]imidazol-2-yl)-4-(((R*)-1-(pyrimidin-2-yl)ethyl)amino)quinolin-2(1H)-one]",IC50,[2],29.3 nM
same,IC50,[4],20.2 nM
"CC(Nc1c(-c2nc3ccc(N4CCN(CCC(F)(F)F)CC4)cc3[nH]2)c(=O)[nH]c2ccccc12)c1ncccn1 (single isomer, unassigned) [Compound 41b, (R*)-4-((1-(pyrimidin-2-yl)ethyl)amino)-3-(6-(4-(3,3,3-trifluoropropyl)piperazin-1-yl)-1H-benzo[d]imidazol-2-yl)quinolin-2(1H)-one]",IC50,[2],39.4 nM
same,IC50,[4],19.4 nM
"CC(C)c1ccnc(C(C)Nc2c(-c3nc4ccc(N5CCOCC5)cc4[nH]3)c(=O)[nH]c3ccccc23)n1 (single isomer, unassigned) [Compound 49a, (S*)-4-((1-(4-isopropylpyrimidin-2-yl)ethyl)amino)-3-(6-morpholino-1H-benzo[d]-imidazol-2-yl)quinolin-2(1H)-one]",IC50,[2],27 nM
same,IC50,[4],7.07 nM
"C[C@H](Nc1c(-c2nc3ccc(N4CCOCC4)cc3[nH]2)c(=O)[nH]c2ccccc12)c1nccc(C2CC2)n1 (single isomer, unassigned) [Compound 50a, (S*)-4-((1-(4-cyclopropylpyrimidin-2-yl)ethyl)amino)-3-(6-morpholino-H-benzo[d]-imidazol-2-yl)quinolin-2(1H)-one]",IC50,[2],48.9 nM
same,IC50,[4],8.75 nM
"CC(Nc1c(-c2nc3ccc(-c4cnn(C)c4)cc3[nH]2)c(=O)[nH]c2ccccc12)c1ncccn1 (single isomer, unassigned) [Compound 53b, (R*)-3-(6-(1-methyl-1H-pyrazol-4-yl)-1H-benzo[d]imidazol-2-yl)-4-((1-(pyrimidin-2-yl)ethyl)amino)quinolin-2(1H)-one]",IC50,[2],35.2 nM
same,IC50,[4],15.3 nM
"CC(Nc1c(-c2nc3cc(C(F)(F)F)c(N4CCC(C(=O)OC(C)(C)C)CC4)cc3[nH]2)c(=O)[nH]c2ccccc12)c1ncccn1 (single isomer, unassigned) [Compound 57, (S*)-tert-butyl 1-(2-(2-oxo-4-((1-(pyrimidin-2-yl)ethyl)amino)-1,2-dihydroquinolin-3-yl)-5-(trifluoromethyl)-1H-benzo[d]imidazol-6-yl)piperidine-4-carboxylate]",IC50,[2],61.9 nM
same,IC50,[4],19.2 nM
